The values below come from US8101754B2, “Triazole compounds suitable for treating disorders that respond to modulation of the dopamine D3 receptor” (Abbott GmbH & Co. KG, priority 2004, dated 2012).

For assay [1], the target named is T1, human dopamine D3 receptors (Homo sapiens, UniProt P35462).
T1 construct: expressed in transfected cells; membranes)
Briefly: Dopamine D3 receptor binding ([125I]-iodosulpride displacement). As to the method: The substance to be tested was either dissolved in methanol/Chremophor® (BASF-AG) or in dimethyl sulfoxide and then diluted with water to the desired concentration.
Each assay mixture was run in triplicate.
The incubation buffer contained 50 mM tris, 120 mM NaCl, 5 mM KCl, 2 mM CaCl2, 2 mM MgCl2 and 0.1% bovine serum albumin, 10 μM quinolone and 0.1% ascorbic acid (prepared fresh daily). The buffer was adjusted to pH 7.4 with HCl.
Measurement and Analysis:
After having been incubated at 25° C. for 60 minutes, the assay mixtures were filtered through a Wathman GF/B glass fiber filter under vacuum using a cell collecting device. The filters were transferred to scintillation viols using a filter transfer system. After 4 ml of Ultima Gold® (Packard) have been added, the samples were shaken for one hour and the radioactivity was then counted in a Beta-Counter (Packard, Tricarb 2000 or 2200CA). The cpm values were converted into dpm using a standard quench series and the program belonging to the instrument.
The inhibition curves were analyzed by means of iterative nonlinear regression analysis using the Statistical Analysis System (SAS) which is similar to the “LIGAND” program described by Munson and Rodbard.

The target in assay [2] is T2, human dopamine D2L receptors (long isoform) (Homo sapiens, UniProt P14416).
T2 construct: expressed in transfected cells; membranes)
T2 sequence (P14416 whole entry, canonical isoform): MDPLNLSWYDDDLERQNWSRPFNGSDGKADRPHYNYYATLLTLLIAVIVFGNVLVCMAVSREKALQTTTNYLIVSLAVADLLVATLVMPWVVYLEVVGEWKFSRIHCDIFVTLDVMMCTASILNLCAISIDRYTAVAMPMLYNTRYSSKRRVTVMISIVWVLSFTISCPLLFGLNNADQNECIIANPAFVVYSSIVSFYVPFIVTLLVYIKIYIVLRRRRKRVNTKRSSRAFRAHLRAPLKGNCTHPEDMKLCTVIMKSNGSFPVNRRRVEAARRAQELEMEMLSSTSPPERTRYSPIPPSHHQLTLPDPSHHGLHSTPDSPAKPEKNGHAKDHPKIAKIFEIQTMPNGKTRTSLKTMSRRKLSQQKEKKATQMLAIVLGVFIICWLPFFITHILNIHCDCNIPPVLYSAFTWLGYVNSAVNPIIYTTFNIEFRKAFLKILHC
Briefly: Dopamine D2L receptor binding ([125I] iodospiperone), basis of selectivity Ki(D2)/Ki(D3). The conditions noted are these: for Selectivity [Ki(D2)/Ki(D3)]: D2L vs D3; for D2/D3: Table 7, compounds of formula IIa. On the procedure:
The substance to be tested was either dissolved in methanol/Chremophor® (BASF-AG) or in dimethyl sulfoxide and then diluted with water to the desired concentration. […] Each assay mixture was run in triplicate. The incubation buffer contained 50 mM tris, 120 mM NaCl, 5 mM KCl, 2 mM CaCl2, 2 mM MgCl2 and 0.1% bovine serum albumin. The buffer was adjusted to pH 7.4 with HCl. Measurement and Analysis: After having been incubated at 25° C. for 60 minutes, the assay mixtures were filtered through a Wathman GF/B glass fiber filter under vacuum using a cell collecting device. The filters were transferred to scintillation viols using a filter transfer system. After 4 ml of Ultima Gold® (Packard) have been added, the samples were shaken for one hour and the radioactivity was then counted in a Beta-Counter (Packard, Tricarb 2000 or 2200CA). The cpm values were converted into dpm using a standard quench series and the program belonging to the instrument. The inhibition curves were analyzed by means of iterative nonlinear regression analysis using the Statistical Analysis System (SAS) which is similar to the “LIGAND” program described by Munson and Rodbard.

Where [3] appears, read: Table 5, membranes of HEK-293 cells, read-out: Ki D3.
Where [4] appears, read: Table 6, membranes of HEK-293 cells, read-out: ki D3.
Where [5] appears, read: compounds II, read-out: Ki D3 values.
Where [6] appears, read: Table 7, compounds of formula IIa, read-out: D3.

pKi: −log10 of the molar value. Structures can show the parent of a compound that is named as a salt. Where two headings read alike, the source gives them in different places. Where only a bound is given, the exact number is not on record here.

T1 sequence (P35462 whole entry): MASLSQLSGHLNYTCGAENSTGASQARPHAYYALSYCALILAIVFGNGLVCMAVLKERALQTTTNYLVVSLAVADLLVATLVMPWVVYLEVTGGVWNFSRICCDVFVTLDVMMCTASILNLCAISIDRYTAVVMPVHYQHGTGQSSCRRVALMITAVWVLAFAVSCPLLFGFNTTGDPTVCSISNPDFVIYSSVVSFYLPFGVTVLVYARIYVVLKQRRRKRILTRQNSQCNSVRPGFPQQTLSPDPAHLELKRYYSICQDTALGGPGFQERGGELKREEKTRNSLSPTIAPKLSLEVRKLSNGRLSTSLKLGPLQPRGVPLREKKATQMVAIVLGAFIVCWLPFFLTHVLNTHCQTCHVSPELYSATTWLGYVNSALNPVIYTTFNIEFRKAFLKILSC

`Cc1nnc([S+]([O-])CCCN2CCN(c3cc(C4(C)CC4)nc(C(C)(C)C)n3)CC2)n1C` (centres unmarked) [Example 6, 2-tert-Butyl-4-{4-[3-(4,5-dimethyl-4H-[1,2,4]triazole-3-sulfinyl)-propyl]-piperazin-1-yl}-6-(1-methyl-cyclopropyl)-pyrimidine]: the pKi in assay [1] (setting [3]) was 7.54. The “Selectivity [Ki(D2)/Ki(D3)]” value in assay [2] (Table 5) is 20. For `Cn1cnnc1S(=O)(=O)CCCN1CCN(c2cc(C(C)(C)C)nc(C(C)(C)C)n2)CC1` [Example 17, 2,4-Di-tert-butyl-6-{4-[3-(4-methyl-4H-[1,2,4]triazole-3-sulfonyl)-propyl]-piperazin-1-yl}-pyrimidine], the pKi in assay [1] (setting [4]) is 8.23. For the same molecule, in assay [2] (Table 6), the “Selectivity [Ki(D2)/Ki(D3)]” value came out at 53.

For `Cl.Cn1cnc([S+]([O-])CCCN2CCN(c3cc(C(F)(F)F)nc(C(C)(C)C)n3)CC2)n1` (centres unmarked) [Example 21, 2-tert-Butyl-4-{4-[3-(1-methyl-1H-[1,2,4]triazole-3-sulfinyl)-propyl]-piperazin-1-yl}-6-trifluoromethyl-pyrimidine hydrochloride], the pKi in assay [1] (setting [4]) is 7.78. Further, in assay [2] (Table 6), the “Selectivity [Ki(D2)/Ki(D3)]” value is on record as 18.

With `CCc1cc(N2CCN(CCCSc3nnc(C(F)(F)F)n3C)CC2)nc(C(C)(C)C)n1` [c.28, 2-tert-Butyl-4-{4-[3-(4-methyl-5-trifluoromethyl-4H-[1,2,4]triazol-3-ylsulfanyl)-propyl]-piperazin-1-yl}-6-ethyl-pyrimidine hydrochloride], the pKi in assay [1] (setting [5]) was more than 8.30.

For `CC(C)c1cc(N2CCN(CCCS(=O)(=O)c3nncn3C)CC2)nc(C(C)(C)C)n1` [Example 23, 2-tert-Butyl-4-{4-[3-(4-methyl-1H-[1,2,4]triazole-3-sulfonyl)-propyl]-piperazin-1-yl}-6-isopropyl-pyrimidine], the pKi in assay [1] (setting [4]) was 7.22. Besides, the “Selectivity [Ki(D2)/Ki(D3)]” value in assay [2] (Table 6) is recorded as 49. `CCCc1cc(N2CCN(CCC[S+]([O-])c3ncn(C)n3)CC2)nc(C(C)(C)C)n1.Cl` (centres unmarked) [Example 28, 2-tert-Butyl-4-{4-[3-(1-methyl-1H-[1,2,4]triazole-3-sulfinyl)-propyl]-piperazin-1-yl}-6-propyl-pyrimidine hydrochloride]: the pKi in assay [1] (setting [4]) was 8.00. Also, the “Selectivity [Ki(D2)/Ki(D3)]” value in assay [2] (Table 6) was 158. With `Cc1nnc(S(=O)(=O)CCCN2CCN(c3cc(C4(C)CC4)nc(C(C)(C)C)n3)CC2)n1C` [Example 10, 2-tert-Butyl-4-{4-[3-(4,5-dimethyl-4H-[1,2,4]triazole-3-sulfonyl)-propyl]-piperazin-1-yl}-6-(1-methyl-cyclopropyl)-pyrimidine], the pKi in assay [1] (setting [3]) was 8.11. The “Selectivity [Ki(D2)/Ki(D3)]” value in assay [2] (Table 5) turned out to be 37. With `Cn1cnnc1[S+]([O-])CCCN1CCN(c2cc(C3CCCC3)nc(C(C)(C)C)n2)CC1` (centres unmarked) [Example 25, 2-tert-Butyl-4-{4-[3-(4-methyl-1H-[1,2,4]triazole-3-sulfinyl)-propyl]-piperazin-1-yl}-6-cyclopentyl-pyrimidine], the pKi in assay [1] (setting [4]) is 7.63. Besides, in assay [2] (Table 6), the “Selectivity [Ki(D2)/Ki(D3)]” value is reported as 30.

Consider `CC(=O)O.Cn1c(SCCCN2CCN(c3cc(C(F)(F)F)nc(C(C)(C)C)n3)CC2)nnc1C1CCC1` [c.18, 2-tert-Butyl-4-{4-[3-(4-methyl-5-cyclobutyl-4H-[1,2,4]triazol-3-ylsulfanyl)-propyl]-piperazin-1-yl}-6-trifluoromethyl-pyrimidine acetate], for which the pKi was 8.54 in assay [1] (setting [6]) and more than 8.30 in assay [1] (setting [5]). Further, in assay [2], the D2/D3 came out at 134. For `Cl.Cn1ncnc1S(=O)(=O)CCCN1CCN(c2cc(C(C)(C)C)nc(C(C)(C)C)n2)CC1` [Example 20, 2,4-Di-tert-butyl-6-{4-[3-(2-methyl-2H-[1,2,4]triazole-3-sulfonyl)-propyl]-piperazin-1-yl}-pyrimidine hydrochloride], the pKi in assay [1] (setting [4]) was 7.58. Besides, the “Selectivity [Ki(D2)/Ki(D3)]” value in assay [2] (Table 6) is given as 8. On to `Cn1c(-c2ccc(F)cc2)nnc1[S+]([O-])CCCN1CCN(c2cc(C(F)(F)F)nc(C(C)(C)C)n2)CC1` (centres unmarked) [Example 15, 2-tert-Butyl-4-(4-{3-[5-(4-fluoro-phenyl)-4-methyl-4H[1,2,4]triazole-3-sulfinyl]-propyl}-piperazin-1-yl)-6-trifluoromethyl-pyrimidine], for which the pKi in assay [1] (setting [3]) is 7.90. For the same molecule, the “Selectivity [Ki(D2)/Ki(D3)]” value in assay [2] (Table 5) is given as 100. For `Cl.Cn1c(SCCCN2CCN(c3cc(C(F)(F)F)nc(C(C)(C)C)n3)CC2)nnc1C(F)(F)F` [c.13, 2-tert-Butyl-4-{4-[3-(4-methyl-5-trifluoromethyl-4H-[1,2,4]triazol-3-ylsulfanyl)-propyl]-piperazin-1-yl}-6-trifluoromethyl-pyrimidine hydrochloride], the pKi in assay [1] (setting [6]) is 8.89. In assay [2], this molecule gave a D2/D3 of 157. As for `Cl.Cn1c(-c2ccc(F)cc2)nnc1S(=O)(=O)CCCN1CCN(c2cc(C(F)(F)F)nc(C(C)(C)C)n2)CC1` [Example 16, 2-tert-Butyl-4-(4-{3-[5-(4-fluoro-phenyl)-4-methyl-4H-[1,2,4]triazole-3-sulfonyl]-propyl}-piperazin-1-yl)-6-trifluoromethyl-pyrimidine hydrochloride], the pKi in assay [1] (setting [3]) is 7.75. Moreover, the “Selectivity [Ki(D2)/Ki(D3)]” value in assay [2] (Table 5) is reported as 56. As for `CCc1nnc(SCCCN2CCN(c3cc(C(F)F)nc(C(C)(C)C)n3)CC2)n1C` [c.29, 2-tert-Butyl-4-{4-[3-(4-methyl-5-ethyl-4H-[1,2,4]triazol-3-ylsulfanyl)-propyl]-piperazin-1-yl}-6-difluoromethyl-pyrimidine hydrochloride], the pKi in assay [1] (setting [5]) is more than 8.30. `Cn1c(SCCCN2CCN(c3cc(C(F)F)nc(C(C)(C)C)n3)CC2)nnc1C1CC1` [c.21, 2-tert-Butyl-4-{4-[3-(4-methyl-5-cyclopropyl-4H-[1,2,4]triazol-3-ylsulfanyl)-propyl]-piperazin-1-yl}-6-difluoromethyl-pyrimidine hydrochloride]: the pKi in assay [1] (setting [5]) is more than 8.30. On to `Cn1c(SCCCN2CCN(c3cc(C(F)F)nc(C(C)(C)C)n3)CC2)nnc1C(F)(F)F` [c.6, 2-tert-Butyl-4-{4-[3-(4-methyl-5-trifluoromethyl-4H-[1,2,4]triazol-3-ylsulfanyl)-propyl]-piperazin-1-yl}-6-difluoromethyl-pyrimidine hydrochloride], for which the pKi in assay [1] (setting [5]) is more than 8.30.

As for `Cn1c(SCCCN2CCN(c3cc(C(F)(F)F)nc(C(C)(C)C)n3)CC2)nnc1C1CCCC1` [c.3, 2-tert-Butyl-4-{4-[3-(4-methyl-5-cyclopentyl-4H-[1,2,4]triazol-3-ylsulfanyl)-propyl]-piperazin-1-yl}-6-trifluoromethyl-pyrimidine trifluoroacetate], the pKi in assay [1] (setting [5]) is more than 8.30.

With `Cn1c(SCCCN2CCN(c3cc(C(F)F)nc(C(C)(C)C)n3)CC2)nnc1C1CCC1` [c.20, 2-tert-Butyl-4-{4-[3-(4-methyl-5-cyclobutyl-4H-[1,2,4]triazol-3-ylsulfanyl)-propyl]-piperazin-1-yl}-6-difluoromethyl-pyrimidine hydrochloride], the pKi in assay [1] (setting [5]) was more than 8.30.

In the case of `Cn1c(SCCCN2CCN(c3cc(C(F)(F)F)nc(C(C)(C)C)n3)CC2)nnc1C(C)(C)C` [c.27, 2-tert-Butyl-4-{4-[3-(4-methyl-5-tert-butyl-4H-[1,2,4]triazol-3-ylsulfanyl)-propyl]-piperazin-1-yl}-6-trifluoromethyl-pyrimidine], in assay [1] (setting [5]), the pKi is more than 8.30.
